Patent US9458161B1, “TSPO ligands for cancer imaging and treatment” (Vanderbilt University, priority 2011, dated 2016)
Where two headings read alike, the source gives them in different places.

Tests used:
TSPO [1] = target: T1, TSPO (Homo sapiens, UniProt P30536); settings: cited from earlier work
TSPO [2] = target: T1, TSPO; parameters: host or cells: glioma patients (Junck et al; Pappata et al.); settings: cited from earlier work
[3] = HPLC radiometabolite analysis of plasma after [18F]DPA-714; format: in vivo, rat; settings: mean ± SD
Protocol: Briefly, arterial blood (200 μL) was collected at 2, 12, 30, 60, and 90 min. Following centrifugation, plasma was extracted with acetonitrile:water (340 μL, 7:1, v/v). The mixture was centrifuged and the supernatant used for reversed phase HPLC analysis using 0.1 M aqueous ammonium acetate (NH4)OAc (pH 10) and acetonitrile (30:70; v/v) at 1 mL/min on a C18 Dynamax 250×4.6 mm (Varian) column. Radiochromatographic data were recorded and collected using a radioisotope detector (Bioscan), decay-corrected to time zero of each radiochromatogram, and smoothed using a locally weighted scatter plot smoothing method. The plasma time-activity curve was corrected according to the fraction of unchanged radioligand.

[4] = HPLC radiometabolite analysis of plasma after [18F]PBR06; format: in vivo, rat
Protocol: Blood samples (200 μL) were collected (2, 25, 45 min) for radiometabolite analysis. Following centrifugation, plasma was extracted with acetonitrile:water (340 μL, 7.5:1, v/v). The mixture was centrifuged and the supernatant used for HPLC analysis. Radioanalysis was conducted as is known in the art. Radiochromatographic data were recorded and collected using a radioisotope detector (Bioscan, Washington, D.C., USA), decay-corrected to time zero of each radiochromatogram, and smoothed using a locally weighted scatter plot smoothing (LOWESS) method. The plasma time-activity curve (TAC) was corrected with the fraction of unchanged radioligand.
Arterial blood samples were collected to assay [^18F]PBR06 radiometabolites for correction of the AIF. FIG. 12 illustrates a typical activity corrected reversed-phase HPLC trace of a blood sample collected two minutes following injection of [^18F]PBR06. At this time point we noted the presence of both ^18F^− (retention time 2.8 min) and the parent ligand (10.1 min) in a respective ratio of ˜1:3.

TSPO [5] = target: TSPO (Rattus norvegicus, UniProt P16257); settings: for K1/k2: 3-compartment, 4-parameter model; for K1/k2 / k3 / VT: mean ± S.E.; for K1/k2 / k3: N=3; for VT: N=4
Protocol: In this Example Glioma-bearing rats were imaged with [^18F]PBR06 in a microPET system. Dynamic acquisitions were acquired simultaneously upon injection of 70-100 MBq/0.2 mL [^18F]PBR06. Over the course of scanning, arterial blood was collected to derive the input function, with HPLC radiometabolite analysis performed on selected samples for arterial input function correction. Compartmental modeling of the PET data was performed using the corrected arterial input function. Specific tumor cell binding of PBR06 was evaluated by radioligand displacement of [^3H]PK 11195 with PBR06 in vitro and by displacement of [^18F]PBR06 with excess PBR06 in vivo. Immediately following imaging, tumor tissue and adjacent healthy brain were harvested for assay of TSPO protein levels by western blotting and immunohistochemistry.
PET/CT imaging was performed within 24 h of MR imaging in rats with confirmed tumors. Tumor-bearing rats were administered ˜70-100 MBq/0.2 mL [^18F]PBR06 via a jugular catheter while in a microPET Focus 220 (Siemens Preclinical Solutions, Knoxville, Tenn., USA). Dynamic images (90 min) were collected, followed by CT (microCAT II, Siemens Preclinical Solutions) for attenuation correction. For displacement studies, cold PBR06 (10 mg/kg) was injected via jugular catheter 30 min after radiotracer administration.
The dynamic PET acquisition was divided into twelve, five-second frames for the first minute, followed by 89 sixty-second frames for the duration of the scan. Data from all possible lines of response (LOR) were saved in the list mode raw data format. The raw data was then binned into 3D sinograms with a span of 3 and ring difference of 47. The images were reconstructed into transaxial slices (128×128×95) with voxel sizes of 0.095×0.095×0.08 cm^3, after applying scatter and attenuation corrections, using an iterative ordered subsets expectation maximization (OS-EM 2D) algorithm with 16 subsets and 4 iterations. Attenuation correction was accomplished by generating an attenuation map (sinogram) from the CT image. The CT image was first co-registered with the microPET image, segmented into air, soft tissue, and bone, and then projected into sinograms with a span of 47 and ring difference of 23.
Immediately following administration of [^18F]PBR06, arterial blood samples (50 μL) were collected at 10 s intervals during the first minute of scanning, followed by collection at 90 s and 2, 8, 12, 20, 30, 45, 60, 75, and 90 min. Plasma radioactivity was measured by first centrifuging blood samples (50 μL) at 14,000 rpm for 5 min in a microcentrifuge. Next, plasma (15 μL) was removed and measured in a NaI well counter (Capintec, Ramsey, N.J., USA).
Time-activity curves (TACs) were generated by manually segmenting three-dimensional volumes of interest over tumor and contralateral brain using ASIPro (Siemens Preclinical Solutions), avoiding areas of central necrosis if present. The arterial input function (AIF) was computed from plasma sampling during imaging and corrected for metabolism of the parent ligand. A 3-compartment, 4-rate constant kinetic model was used to characterize [^18F]PBR06 pharmacokinetics as previously described. Using the COMKAT software package, model parameters were estimated for constants for influx (K1) and efflux (k2) rates of radioligand diffusion between plasma and tissue compartments, and exchange between specific (k3) and non-specific binding (k4) compartments. Modeling was carried out for whole brain (excluding tumor) and tumor, individually, by fitting TACs of each region.
To evaluate the in vivo TSPO specificity of [^18F]PBR06, we carried out displacement studies in C6-bearing rats using the cold analog, PBR06.

[6] = at 45 minutes, after infusion of PBR06 at 30 minutes

T1 sequence (P30536 whole entry): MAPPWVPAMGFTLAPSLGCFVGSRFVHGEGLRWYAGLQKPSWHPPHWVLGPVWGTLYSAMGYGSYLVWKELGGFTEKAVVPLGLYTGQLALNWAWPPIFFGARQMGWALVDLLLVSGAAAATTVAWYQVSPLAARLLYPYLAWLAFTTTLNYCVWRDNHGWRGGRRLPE

## CCC(C)N(C)C(=O)c1cc2ccccc2c(-c2ccccc2Cl)n1 (stereo not shown) [PK 11195]
TSPO [1]
  in vitro affinity (in words): in vitro affinity in the low nanomolar range

## CN1C(=O)CN=C(c2ccc(Cl)cc2)c2cc(Cl)ccc21 [Ro5-4864]
TSPO [1]
  in vitro affinity (in words): in vitro affinity in the low nanomolar range

## CC[C@@H](C)N([11CH3])C(=O)c1cc2ccccc2c(-c2ccccc2Cl)n1 [[^11C]PK 11195]
TSPO [2]; glioma patient (Pappata et al.)
  displaceable fraction of tracer with nonradioactive ligand: less than 30%
TSPO [2]; human gliomas (Junck et al.)
  patients with significantly elevated uptake in gliomas vs contralateral normal brain: 8/10
TSPO [2]; human gliomas, in 3/10 patients (Junck et al.)
  tumor/gray matter ratio: ~2

## [11CH3]N1C(=O)CN=C(c2ccc(Cl)cc2)c2cc(Cl)ccc21 [[^11C]Ro5-4864]
TSPO [2]; human gliomas, PET (Junck et al.)
  radioactivity in tumor tissue vs normal brain (in words): failed to demonstrate higher levels of radioactivity in tumor tissue than in normal brain

## CCN(CC)C(=O)Cc1c(-c2ccc(OCC[18F])cc2)nn2c(C)cc(C)nc12 [[^18F]DPA-714]
[3]; P.I. time 2 (N=7)
  % 18F- in plasma: 2 ± 3.3%
  % Metabolite (hydrophilic radiometabolite) in plasma: 3 ± 3.7%
[3]; P.I. time 12 (N=7)
  % 18F- in plasma: 13 ± 6.7%
  % Metabolite (hydrophilic radiometabolite) in plasma: 19 ± 5.8%
  % [18F]DPA-714 (parent) in plasma: 68 ± 7.4%
[3]; P.I. time 30 (N=7)
  % 18F- in plasma: 37 ± 5.4%
  % Metabolite (hydrophilic radiometabolite) in plasma: 19 ± 8.8%
  % [18F]DPA-714 (parent) in plasma: 44 ± 8.9%
[3]; P.I. time 60 (N=7)
  % 18F- in plasma: 50 ± 15.0%
  % Metabolite (hydrophilic radiometabolite) in plasma: 23 ± 7.3%
  % [18F]DPA-714 (parent) in plasma: 27 ± 6.2%
[3]; P.I. time 90 (N=5)
  % 18F- in plasma: 64 ± 12.1%
  % Metabolite (hydrophilic radiometabolite) in plasma: 14 ± 3.8%
  % [18F]DPA-714 (parent) in plasma: 22 ± 17.8%

## COc1ccc(OC)c(CN(C(=O)C[18F])c2ccccc2Oc2ccccc2)c1 [[^18F]PBR06]
[4]; at 2 minutes after injection
  free 18F− in plasma: 25%
  parent ligand [18F]PBR06 in plasma: 75%
[4]; at 30 minutes
  free 18F− in plasma: 62%
  parent ligand [18F]PBR06 in plasma: 38%
[4]; [6]
  18F− in plasma: 43%
  fraction of [18F]PBR06 in plasma: 57%
TSPO [5]; C6 glioma-bearing rats
  tracer distribution tumor vs contralateral brain (in words): preferentially accumulate in tumors with modest uptake in contralateral brain
TSPO [5]; PBR06 10 mg/kg i.v. 30 min after tracer
  tumor activity after PBR06 infusion, % of maximum/peak tumor uptake: approximately 25%
TSPO [5]; brain
  K1/k2: 6.164 ± 2.049 mL/g
  k3: 0.0714 ± 0.0261 min⁻¹
  VT: 13.07 ± 3.901 mL/g
TSPO [5]; brain, mean, N=3 (S.E. in next line)
  k4: 0.00945 min⁻¹
TSPO [5]; infusion of PBR06 10 mg/kg 30 min after tracer, tumor
  displaceable [18F]PBR06 binding: approximately 75%
TSPO [5]; last 20 minutes of the PET scan
  total radioactivity in tumor relative to normal brain: approximately three- to four-fold higher than normal brain
TSPO [5]; tumor
  K1/k2: 5.947 ± 1.982 mL/g
  k3: 0.3870 ± 0.1592 min⁻¹
  VT: 63.90 ± 3.400 mL/g
